The record followed here is article PMC8745710, “Biological Evaluation and Molecular Docking Studies of Novel 1,3,4-Oxadiazole Derivatives of 4,6-Dimethyl-2-sulfanylpyridine-3-carboxamide” (International Journal of Molecular Sciences, 2022).

Like-named read-outs stand apart in the source and are kept apart here.

One experiment concerns the target T1, COX-1 (Ovis aries, UniProt P05979).
T1 construct: purchased Cayman Chemical Company, Ann Arbor, MI, USA
T1 sequence (P05979 25-600): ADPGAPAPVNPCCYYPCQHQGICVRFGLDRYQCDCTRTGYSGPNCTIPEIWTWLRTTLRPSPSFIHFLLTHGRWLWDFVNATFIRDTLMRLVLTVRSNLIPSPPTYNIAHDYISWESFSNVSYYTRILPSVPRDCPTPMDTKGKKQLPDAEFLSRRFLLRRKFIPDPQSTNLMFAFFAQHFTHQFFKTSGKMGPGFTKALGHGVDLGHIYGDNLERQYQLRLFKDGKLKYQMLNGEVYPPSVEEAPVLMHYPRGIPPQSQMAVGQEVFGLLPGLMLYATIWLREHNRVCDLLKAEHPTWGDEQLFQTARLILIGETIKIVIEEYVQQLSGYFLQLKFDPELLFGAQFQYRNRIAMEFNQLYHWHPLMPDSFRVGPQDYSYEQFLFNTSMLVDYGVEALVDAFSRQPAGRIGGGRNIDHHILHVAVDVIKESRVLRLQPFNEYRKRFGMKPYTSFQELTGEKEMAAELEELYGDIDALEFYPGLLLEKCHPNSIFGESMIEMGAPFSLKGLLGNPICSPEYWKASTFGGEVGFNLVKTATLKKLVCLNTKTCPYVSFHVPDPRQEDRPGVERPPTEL
The experiment in a line: COX colorimetric inhibitor screening assay, COX-1. Format: biochemical. The settings on record: after 2 min of incubation, n = 5; for IC50: read-out: IC50 [µM] ± SD COX-1. The source says: The compounds were studied for their potencies to inhibit COX-1 and COX-2 enzymes by the colorimetric inhibitor screening assay.
A COX Colorimetric Inhibitor Screening Assay Kit, produced by Cayman Chemical Company, Ann Arbor, MI, USA, was used. It used the colorimetric monitoring of oxidized form of TMPD (N,N,N′,N′-tetramethyl-p-phenylenediamine) which was produced during reduction of prostaglandin G2 (PGG2) to PGH2. […] Reagents used it this assay were: COX-1 and COX-2 enzymes, Tris-HCl buffer, solutions of heme in DMSO and TMPD, arachidonic acid, KOH. To be sure that 100% enzymatic activity was achieved each sample was measured 3 times. The probes were measured after two minutes of incubation with tested compounds in the comparison to the initial activity of enzyme.

Experiment [1] has as its system VERO (kidney epithelial cells). The experiment in a line: MTT assay, VERO. The settings on record: Chlorocebus sabaeus, Vero, 48 h incubation, read-out: IC50 [µM] ± SD VERO. Format: cell-based. The source says:
The MTT (3-[4,5-dimethylthiazol-2-yl]-2,5-diphenyl tetrazolium bromide) assay was used to determine the cytotoxicity of tested compounds towards different cell lines: normal human dermal fibroblasts (NHDF), kidney epithelial cells (VERO), fibroblasts from Chinese hamster lung (V79) and four human cancer cells: A549 (pulmonary basal cell alveolar adenocarcinoma), MCF-7 (breast adenocarcinoma), LoVo (colon adenocarcinoma), and its drug resistant subline LoVo/Dx. The cell lines used in this study express COX-1 and COX-2. The LoVo line expressed COX-1, the LoVo/Dx subline express both COX-1 and COX-2 [61].
Each cell line was grown in the culture media recommended by supplier. Before the test they were detached with trypsin/EDTA solution, then to neutralize the effect of Trypsin/EDTA solution, FBS containing medium was used. After centrifugation the cells were stained with 0.4% solution of trypan blue, counted and inspected for viability using microscope. In the end, cells were inserted into 96-well culture plates and incubated in CO2 incubator (37 °C, 24 h). The number of cells was 2 × 10^3 cells per well. The tested compounds with different concentrations (5, 10, 20, 50, 100 µM) were dissolved in DMSO and then added to the cells (the final DMSO concentration was 0.1%). The cultures were incubated for another 48 h. After that time the cells were collected to be used in tests.
MTT assay was used to find out how tested compounds influence the metabolic activity of investigated cell lines. The cells were incubated with tested compounds. After removing of supernatant, 1 mg/mL of MTT solution in MEM was added to the plate (to each well) and then the plates were incubated at 37 °C for 2 h. The medium was removed again, and formazan crystals were dissolved in isopropanol. A Varioscan LUX microplate reader (Thermo Fisher Scientific, Waltham, MA, USA) was used to measure absorbance at 570 nm.
Background: Tetrazolium assays rely on reduction of a dye to a coloured formazan, in cell work by metabolically active cells.

Another experiment has as its system V79 cell line. As to the kind of experiment: Intracellular ROS level (DCFH-DA), V79 cells. The settings on record: Cricetulus griseus, 4 h, V79, compound 100 μM. Type of experiment: cell-based, Chinese hamster. The protocol: Two cell lines were chosen for investigations: V79 (Chinese hamster lung fibroblasts) and LoVo. V79 normal cells are widely used as the cell line tested in the studies of the oxidative stress. These cells are a living system model to explain the mechanism of ROS effects caused by varied compounds [73].
First, the tested compounds (in concentration of 100 μM) were added to the cell cultures and cells were incubated for 4 h. Then cells were washed and incubated with DCFH-DA (non-fluorescent probe) in dark at 37 °C for 2 h at CO2 [79]. Non-fluorescent, non-polar DCFH-DA (2′7′-dichlorodihydrofluorescein diacetate) at concentration of 25 μM was used as a marker of oxidative stress to determine the intracellular ROS levels. […] In this time, DCFH-DA which penetrated into the cells, was hydrolyzed by esterases to polar, non-fluorescent DCFH (2′7′-dichlorodihydrofluorescein) and then oxidized in the presence of ROS (reactive oxygen species) to fluorescent DCF (2′7′-dichlorofluorescein). DCF was measured using Varioscan LUX microplate reader (Thermo Fisher Scientific, Waltham, MA, USA) at λex = 485 nm and λem = 535 nm. Then results were presented as E/E0 where E is test sample value and E0—control value.
[…] E is the culture with the tested compound and E0 is the negative control without the compound. The routine statistical methods: two-way analysis of variance ANOVA as well as Tukey’s post-hoc test were used. It allowed us to determine the statistical significance of results, where p < 0.05 was set as significant. The statistical indicators were estimated using Statistica 13.3 software.

The mark [2] stands for this setting: with H2O2 (100 μM, 30 min), n = 5, read-out: ROS scavenging activity, Mean E/E0 ± SD, with H2O2.
The mark [3] stands for this setting: without H2O2, n = 5, read-out: ROS scavenging activity, Mean E/E0 ± SD, without H2O2.

Broadly, the IC50 is the midpoint of a concentration-inhibition curve.

For `CSc1ccc(/C=N\NC(=O)Cn2nc(CNC(=O)c3c(C)cc(C)nc3S)oc2=S)cc1` [Compound 8, 4,6-Dimethyl-N-{[4-(2-(2-(4-methysulfanylbenzylidene)hydrazinyl)-2-oxoethyl)-5-sulfanylidene-4,5-dihydro-1,3,4-oxadiazole-2-yl]methyl}-2-sulfanylpyridine-3-carboxamide], the IC50 was 157 ± 12.1 µM at COX-1 and 50.4 ± 2.45 µM in experiment [1]. Besides, the activity at 100 µM in the experiment on V79 cell line (setting [2]) was determined as 72 ± 11%; in the experiment with V79 cell line (setting [3]), 85 ± 29%.
As to `Cc1ccc(C=NNC(=O)Cn2nc(CNC(=O)c3c(C)cc(C)nc3S)oc2=S)cc1` [Compound 7, 4,6-Dimethyl-N-{[4-(2-(2-(4-methylbenzylidene)hydrazinyl)-2-oxoethyl)-5-sulfanylidene-4,5-dihydro-1,3,4-oxadiazole-2-yl]methyl}-2-sulfanylpyridine-3-carboxamide], the IC50 on COX-1 was determined as 148 ± 19.8 µM; in experiment [1] it was 68.3 ± 3.24 µM. In addition, the activity at 100 µM turned out to be 81 ± 23% in the experiment with V79 cell line (setting [2]) and 103 ± 39% in the experiment with V79 cell line (setting [3]).
Taken in the same sequence, the figures for `Cc1cc(C)c(C(=O)NCc2nn(CC(=O)NN)c(=S)o2)c(S)n1` [Compound 4, N-{[4-(2-hydrazinyl-2-oxoethyl)-5-sulfanylidene-4,5-dihydro-1,3,4-oxadiazol-2-yl]methyl}-4,6-dimethyl-2-sulfanylpyridine-3-carboxamide] were 135 ± 5.99 µM, 77.4 ± 5.84 µM, 42 ± 8% and 53 ± 22%.
Taken in the same sequence, the figures for `Cc1cc(C)c(C(=O)NCc2nn(CC(=O)NN=Cc3ccccc3Br)c(=S)o2)c(S)n1` [Compound 13, 4,6-Dimethyl-N-{[4-(2-(2-(2-bromobenzylidene)hydrazinyl)-2-oxoethyl)-5-sulfanylidene-4,5-dihydro-1,3,4-oxadiazole-2-yl]methyl}-2-sulfanylpyridine-3-carboxamide] were 84.4 ± 5.89 µM, 55.7 ± 1.84 µM, 50 ± 15% and 59 ± 8%.
`Cc1cc(C)c(C(=O)NCc2nn(CC(=O)NN=Cc3ccc(Cl)cc3)c(=S)o2)c(S)n1` [Compound 10, 4,6-Dimethyl-N-{[4-(2-(2-(4-chlorobenzylidene)hydrazinyl)-2-oxoethyl)-5-sulfanylidene-4,5-dihydro-1,3,4-oxadiazole-2-yl]methyl}-2-sulfanylpyridine-3-carboxamide]: on COX-1, the “IC50 [µM] ± SD COX-1” value is “selectively inhibited the activity of COX-2”. Also, the IC50 in experiment [1] is 130 ± 9.5 µM. In addition, the activity at 100 µM with V79 cell line (setting [2]) turned out to be 82 ± 37%; in the experiment on V79 cell line (setting [3]) it was 73 ± 27%.
Take `Cc1cc(C)c(C(=O)NCc2nn(CC(=O)NN=Cc3ccccc3)c(=S)o2)c(S)n1` [Compound 5, 4,6-Dimethyl-N-{[4-(2-(2-benzylidenehydrazinyl)-2-oxoethyl)-5-sulfanylidene-4,5-dihydro-1,3,4-oxadiazol-2-yl]methyl}-2-sulfanylpyridine-3-carboxamide]: the IC50 at COX-1 was determined as 73.9 ± 3.03 µM; in experiment [1], 100 ± 13.5 µM. Besides, the activity at 100 µM in the experiment on V79 cell line (setting [2]) is 59 ± 21%; in the experiment with V79 cell line (setting [3]) it was 82 ± 13%.
Taken in the same sequence, the figures for `Cc1cc(C)c(C(=O)NCc2nn(CC(=O)NN=Cc3ccc(F)cc3)c(=S)o2)c(S)n1` [Compound 6, 4,6-Dimethyl-N-{[4-(2-(2-(4-fluorobenzylidene)hydrazinyl)-2-oxoethyl)-5-sulfanylidene-4,5-dihydro-1,3,4-oxadiazole-2-yl]methyl}-2-sulfanylpyridine-3-carboxamide] were 145 ± 20.9 µM, 59.6 ± 5.42 µM, 97 ± 11% and 82 ± 17%.
Take `Cc1cc(C)c(C(=O)NCc2nn(CC(=O)NN=Cc3ccc(C#N)cc3)c(=S)o2)c(S)n1` [Compound 9, 4,6-Dimethyl-N-{[4-(2-(2-(4-cyanobenzylidene)hydrazinyl)-2-oxoethyl)-5-sulfanylidene-4,5-dihydro-1,3,4-oxadiazole-2-yl]methyl}-2-sulfanylpyridine-3-carboxamide]: the IC50 is 154 ± 6.29 µM on COX-1 and 89.8 ± 8.43 µM in experiment [1]. For the same compound, the results for the activity at 100 µM with V79 cell line (setting [2]) and in the experiment on V79 cell line (setting [3]) were 71 ± 12% and 78 ± 31%, respectively.
On the same counts, the results for `Cc1cc(C)c(C(=O)NCc2nn(CC(=O)NN=Cc3cccc(Cl)c3)c(=S)o2)c(S)n1` [Compound 12, 4,6-Dimethyl-N-{[4-(2-(2-(3-chlorobenzylidene)hydrazinyl)-2-oxoethyl)-5-sulfanylidene-4,5-dihydro-1,3,4-oxadiazole-2-yl]methyl}-2-sulfanylpyridine-3-carboxamide] are 66.8 ± 5.19 µM, 79.2 ± 14.4 µM, 62 ± 25% and 68 ± 27%.
Taken in the same sequence, the figures for `Cc1cc(C)c(C(=O)NCc2nn(CC(=O)NN=Cc3ccc(C(F)(F)F)cc3)c(=S)o2)c(S)n1` [Compound 11, 4,6-Dimethyl-N-{[4-(2-(2-(4-trifluoromethylbenzylidene)hydrazinyl)-2-oxoethyl)-5-sulfanylidene-4,5-dihydro-1,3,4-oxadiazole-2-yl]methyl}-2-sulfanylpyridine-3-carboxamide] were 86.2 ± 2.6 µM, 104 ± 4.98 µM, 112 ± 20% and 67 ± 24%.
